Results taken from ChEMBL document CHEMBL5344406, “1,2,3-Triazole-containing hybrids with potential antibacterial activity against ESKAPE pathogens” (2022).
In brackets after ≈: the same amount, converted by molar mass.

Assays:
Assay type in all cases: functional
Pseudomonas aeruginosa [1] = assay: Antibacterial activity against Pseudomonas aeruginosa assessed as bacterial growth inhibition by broth dilution method
Pseudomonas aeruginosa [2] = assay: Potency index, ratio of Penicillin MIC to test compound MIC for antibacterial activity against Pseudomonas aeruginosa assessed as bacterial growth inhibition by broth dilution method
Klebsiella pneumoniae [3] = assay: Potency index, ratio of Penicillin MIC to test compound MIC for antibacterial activity against Klebsiella pneumoniae assessed as bacterial growth inhibition by broth dilution method
Klebsiella pneumoniae [4] = assay: Antibacterial activity against Klebsiella pneumoniae assessed as bacterial growth inhibition by broth dilution method
Staphylococcus aureus [5] = assay: Potency index, ratio of streptomycin MIC to test compound MIC for antibacterial activity against Staphylococcus aureus assessed as bacterial growth inhibition by broth dilution method
Staphylococcus aureus [6] = assay: Antibacterial activity against Staphylococcus aureus assessed as bacterial growth inhibition by broth dilution method
[7] = test system: Staphylococcus epidermidis; assay: Potency index, ratio of streptomycin MIC to test compound MIC for antibacterial activity against Staphylococcus epidermidis assessed as bacterial growth inhibition by broth dilution method
[8] = test system: Staphylococcus epidermidis; assay: Antibacterial activity against Staphylococcus epidermidis assessed as bacterial growth inhibition by broth dilution method
Staphylococcus aureus [9] = assay: Antibacterial activity against methicillin-resistant Staphylococcus aureus assessed as bacterial growth inhibition
Staphylococcus aureus [10] = assay: Antibacterial activity against Staphylococcus aureus ATCC 29213 assessed as bacterial growth inhibition incubated for 24 hrs by CLSI based broth dilution method
Staphylococcus aureus [11] = assay: Potency index, ratio of Pleuromutilin MIC to test compound MIC for antibacterial activity against Staphylococcus aureus clinical isolate 144 incubated for 24 hrs by CLSI based broth dilution method
Staphylococcus aureus [12] = assay: Potency index, ratio of Pleuromutilin MIC to test compound MIC for antibacterial activity against Staphylococcus aureus ATCC 43300 incubated for 24 hrs by CLSI based broth dilution method
Staphylococcus aureus [13] = assay: Potency index, ratio of Pleuromutilin MIC to test compound MIC for antibacterial activity against Staphylococcus aureus clinical isolate AD3 incubated for 24 hrs by CLSI based broth dilution method
Staphylococcus aureus [14] = assay: Antibacterial activity against Staphylococcus aureus ATCC 43300 assessed as bacterial growth inhibition incubated for 24 hrs by CLSI based broth dilution method
Staphylococcus aureus [15] = assay: Potency index, ratio of Pleuromutilin MIC to test compound MIC for antibacterial activity against Staphylococcus aureus ATCC 29213 incubated for 24 hrs by CLSI based broth dilution method
Staphylococcus aureus [16] = assay: Antibacterial activity against methicillin-resistant Staphylococcus aureus ATCC 43300 infected in neutropenic mouse model of thigh infection assessed as reduction in bacterial load at 20 mg/kg, iv measured after 24 hrs by colony counting method
Staphylococcus aureus [17] = assay: Antibacterial activity against Staphylococcus aureus clinical isolate 144 assessed as bacterial growth inhibition incubated for 24 hrs by CLSI based broth dilution method
Staphylococcus aureus [18] = assay: Antibacterial activity against Staphylococcus aureus clinical isolate AD3 assessed as bacterial growth inhibition incubated for 24 hrs by CLSI based broth dilution method
Staphylococcus aureus [19] = assay: Antibacterial activity against Staphylococcus aureus Viotko assessed as bacterial growth inhibition incubated for 1 to 2 days by serial dilution method; settings: time 1-2 day
Staphylococcus aureus [20] = assay: Antibacterial activity against Staphylococcus aureus C-18 clinical isolate assessed as bacterial growth inhibition incubated for 1 to 2 days by serial dilution method; settings: time 1-2 day
Staphylococcus aureus [21] = assay: Antibacterial activity against Staphylococcus aureus 209p ATCC 6538P assessed as bacterial growth inhibition incubated for 1 to 2 days by serial dilution method; settings: time 1-2 day
Staphylococcus aureus [22] = assay: Antibacterial activity against Staphylococcus aureus assessed as bacterial growth inhibition
Bacillus subtilis [23] = assay: Antibacterial activity against Bacillus subtilis assessed as bacterial growth inhibition
Escherichia coli [24] = assay: Antibacterial activity against Escherichia coli assessed as bacterial growth inhibition
Bacillus subtilis [25] = assay: Antibacterial activity against Bacillus subtilis assessed as bacterial growth inhibition incubated for 18 to 20 hrs by broth microdilution method; settings: time 18-20 hrs
Escherichia coli [26] = assay: Antibacterial activity against Escherichia coli JM109 assessed as bacterial growth inhibition incubated for 18 to 20 hrs by broth microdilution method; settings: time 18-20 hrs
Acinetobacter baumannii = assay: Antibacterial activity against Ciprofloxacin-resistant Acinetobacter baumannii assessed as bacterial growth inhibition
Escherichia coli [27] = assay: Antibacterial activity against Ciprofloxacin-resistant Escherichia coli assessed as bacterial growth inhibition
Staphylococcus aureus [28] = assay: Antibacterial activity against Ciprofloxacin-resistant Staphylococcus aureus assessed as bacterial growth inhibition
Bacillus subtilis [29] = assay: Antibacterial activity against Bacillus subtilis MTCC 441 assessed as bacterial growth inhibition incubated for 24 hrs by serial dilution method
Staphylococcus aureus [30] = assay: Antibacterial activity against Staphylococcus aureus MTCC 7443 assessed as bacterial growth inhibition incubated for 24 hrs by serial dilution method
Pseudomonas aeruginosa [31] = assay: Antibacterial activity against Pseudomonas aeruginosa assessed as bacterial growth inhibition incubated for 24 hrs by serial dilution method
Staphylococcus aureus [32] = assay: Antibacterial activity against Staphylococcus aureus assessed as bacterial growth inhibition incubated for 24 hrs by serial dilution method
Salmonella enterica = assay: Antibacterial activity against Salmonella enterica assessed as bacterial growth inhibition incubated for 24 hrs by serial dilution method
Escherichia coli [33] = assay: Antibacterial activity against Escherichia coli assessed as bacterial growth inhibition incubated for 24 hrs by serial dilution method
Bacillus subtilis [34] = assay: Antibacterial activity against Bacillus subtilis assessed as bacterial growth inhibition incubated for 24 hrs by serial dilution method

## CC1(C)O[C@@H]2[C@@H](CC[C@]3(COC(C)(C)O3)[C@H]2OCc2cn(-c3c(Cl)cc(Cl)cc3Cl)nn2)O1
Pseudomonas aeruginosa [1]
  MIC: 1.17 µg/mL (≈ 2.26 µM)
Pseudomonas aeruginosa [2]
  Ratio: 16
Klebsiella pneumoniae [3]
  Ratio: 4
Klebsiella pneumoniae [4]
  MIC: 9.37 µg/mL (≈ 18.1 µM)

## CC1(C)O[C@@H]2[C@@H](CC[C@]3(COC(C)(C)O3)[C@H]2OCc2cn(-c3cccc4ccccc34)nn2)O1
Staphylococcus aureus [5]
  Ratio: 4
Staphylococcus aureus [6]
  MIC: 2.34 µg/mL (≈ 5.03 µM)
[7]
  Ratio: 4
[8]
  MIC: 1.17 µg/mL (≈ 2.51 µM)

## O=C1C(=O)N(CCn2cc(COc3cccc4cccnc34)nn2)c2c(Br)cc(Br)cc21
Staphylococcus aureus [9]
  MIC: 15.2 µg/mL (≈ 27.3 µM)

## C=C[C@]1(C)C[C@@H](OC(=O)CN2CCN(C(=O)Cn3cc(CN4CCN(c5ccc([N+](=O)[O-])cc5)CC4)nn3)CC2)[C@@]2(C)[C@@H]3C(=O)CC[C@@]3(CC[C@@H]2C)[C@@H](C)[C@@H]1O
Staphylococcus aureus [10]
  MIC: 1 µg/mL (≈ 1.29 µM)
Staphylococcus aureus [11]
  Ratio: 2
Staphylococcus aureus [12]
  Ratio: 2
Staphylococcus aureus [13]
  Ratio: 2
Staphylococcus aureus [14]
  MIC: 1 µg/mL (≈ 1.29 µM)
Staphylococcus aureus [15]
  Ratio: 2
Staphylococcus aureus [16]
  Activity: -2.07 log10CFU/ml
Staphylococcus aureus [17]
  MIC: 1 µg/mL (≈ 1.29 µM)
Staphylococcus aureus [18]
  MIC: 1 µg/mL (≈ 1.29 µM)

## O=C(O)c1ccc(-n2cc(CNC(=O)c3cc4ccc(=O)oc4cc3O)nn2)cc1
Staphylococcus aureus [19]
  MIC: 3.75 µg/mL (≈ 9.23 µM)
Staphylococcus aureus [20]
  MIC: 0.65 µg/mL (≈ 1.6 µM)
Staphylococcus aureus [21]
  MIC: 0.16 µg/mL (≈ 0.394 µM)

## CN[C@@H]1[C@H](O[C@H]2[C@H](O[C@H]3[C@H](O)[C@@H](O)[C@H](N=C(N)N)[C@@H](O)[C@@H]3N=C(N)N)O[C@@H](C)[C@]2(O)C=O)O[C@@H](CO)[C@H](O)[C@H]1O [STREPTOMYCIN]
Staphylococcus aureus [22]
  MIC: 6.25 µg/mL (≈ 10.7 µM)
Staphylococcus aureus [6]
  MIC: 9.36 µg/mL (≈ 16.1 µM)
Bacillus subtilis [23]
  MIC: 6.25 µg/mL (≈ 10.7 µM)
Escherichia coli [24]
  MIC: 6.25 µg/mL (≈ 10.7 µM)
Bacillus subtilis [25]
  MIC: 2 µg/mL (≈ 3.44 µM)
Escherichia coli [26]
  MIC: 1 µg/mL (≈ 1.72 µM)
Staphylococcus aureus [21]
  MIC: 1.89 µg/mL (≈ 3.25 µM)
[8]
  MIC: 4.68 µg/mL (≈ 8.05 µM)

## CCOc1c(NC(=O)c2ccc(NC(=O)c3ccc(NC(=O)[C@H](Cc4c[nH]nn4)NC(=O)/C(C)=C/c4ccc(O)cc4)cc3)c(OCC)c2O)ccc(C(=O)O)c1O
Acinetobacter baumannii
  MIC: 0.031 µg/mL (≈ 0.0391 µM)
Escherichia coli [27]
  MIC: 0.031 µg/mL (≈ 0.0391 µM)
Staphylococcus aureus [28]
  MIC: 0.031 µg/mL (≈ 0.0391 µM)

## CC(C)(NS(=O)(=O)c1ccc(Br)cc1)c1cn(-c2ccc(Br)cc2)nn1
Bacillus subtilis [29]
  MIC: 12.5 µg/mL (≈ 25 µM)
Staphylococcus aureus [30]
  MIC: 12.5 µg/mL (≈ 25 µM)

## CC(C)C[C@H](NC(=O)OC(C)(C)C)C(=O)OCc1cn(Cc2ccc(F)cc2)nn1
Pseudomonas aeruginosa [31]
  MIC: 3.12 µg/mL (≈ 7.42 µM)
Staphylococcus aureus [32]
  MIC: 3.12 µg/mL (≈ 7.42 µM)
Salmonella enterica
  MIC: 3.12 µg/mL (≈ 7.42 µM)
Escherichia coli [33]
  MIC: 3.12 µg/mL (≈ 7.42 µM)
Bacillus subtilis [34]
  MIC: 3.12 µg/mL (≈ 7.42 µM)
